In brackets after ≈: the same amount, converted by molar mass. Like-named read-outs stand apart in the source and are kept apart here.
Columns and labels:
[1] = Storage stability of Formulations 1-3 (dl-α-tocopherol assay, total impurities); format: physicochemical; details: various storage conditions
Description: Three-week and four-week storage stabilities, as per Table 15, of Formulations 1-3 were determined under standard storage conditions of 5° C., storage at room temperature, and storage at 40° C./75% RH. The total impurities were less than 1% at the end of three- or four-week storage at 5° C., RT, and 40° C./75% RH.

[2] = Viscosities of the components in the prototype formulations; format: physicochemical; details: neat excipient
Source text: Once injected into the muscle tissue, it forms a depot and the formulation components begin to diffuse into the surrounding tissue and the circulatory system. The rate of diffusion for each component depends on the solubility, permeability, and viscosity of the formulation in the local environment of the depot. Notwithstanding the complexity of the in vivo situation, and without wishing to be held to a particular theory, it is expected that the viscosity of the formulation is a critical factor that affects the diffusion of the formulation components from the site of injection, including from the point of view of ease of injection, diffusion into the muscle tissue, and rate of absorption.

[3] = test system: HR-positive metastatic breast cancer; details: cited from earlier work
[4] = cited from earlier work

## Cc1c(C)c2c(c(C)c1O)CCC(C)(CCCC(C)CCCC(C)CCCC(C)C)O2 (racemic) [dl-α-Tocopherol, dl-α-tocopherol]
[1]
  Stability of dl-α-Tocopherol in the formulations: unstable and susceptible to degradation

## OCc1ccccc1 [Benzyl alcohol]
[2]
  Viscosity (cp): 5.40 cp

## CCO [Ethyl alcohol (Ethanol), Ethanol]
[2]
  Viscosity (cp): 1.04 cp

## C[C@]12CC[C@@H]3c4ccc(O)cc4C[C@@H](CCCCCCCCC[S+]([O-])CCCC(F)(F)C(F)(F)F)[C@H]3[C@@H]1CC[C@@H]2O (stereo partly drawn) [Fulvestrant, 7α-[9-[(4,4,5,5,5-pentafluoropentyl)sulfinyl]nonyl]-estra-1,3,5(10)-triene-3,17β-diol]
[3]; fulvestrant 250 mg IM
  Median overall survival: 22.3 months
[3]; fulvestrant 500 mg IM
  Median overall survival: 26.4 months
[3]; fulvestrant 500 mg compared with 250 mg
  Progression-free survival (PFS): statistically significant increase
[4]; in Benzyl alcohol, 25° C.
  Solubility (mg/ml) at 25° C.: >200 mg/mL
[4]; in Benzyl benzoate, 25° C.
  Solubility (mg/ml) at 25° C.: 6.15 mg/mL (≈ 10.1 mM)
[4]; in Ethanol, 25° C.
  Solubility (mg/ml) at 25° C.: >200 mg/mL
[4]; in Ethyl oleate, 25° C.
  Solubility (mg/ml) at 25° C.: 1.25 mg/mL (≈ 2.06 mM)
[4]; in Isopropyl myristate, 25° C.
  Solubility (mg/ml) at 25° C.: 0.80 mg/mL (≈ 1.32 mM)
[4]; in Migloyl 810, 25° C.
  Solubility (mg/ml) at 25° C.: 3.06 mg/mL (≈ 5.04 mM)
[4]; in Migloyl 812, 25° C.
  Solubility (mg/ml) at 25° C.: 2.72 mg/mL (≈ 4.48 mM)
[4]; in Polyethylene glycol (PEG 400), 25° C.
  Solubility (mg/ml) at 25° C.: 22.5 mg/mL (≈ 37.1 mM)
[4]; in Propylene glycol, 25° C.
  Solubility (mg/ml) at 25° C.: 4.0 mg/mL (≈ 6.59 mM)
[4]; in SPAN ® 85, 25° C.
  Solubility (mg/ml) at 25° C.: 3.79 mg/mL (≈ 6.25 mM)
[4]; in Sesame oil, 25° C.
  Solubility (mg/ml) at 25° C.: 0.58 mg/mL (≈ 0.956 mM)

## CC(O)CO (stereo not shown) [Propylene glycol]
[2]
  Viscosity (cp): 42.00 cp

## sorbitan monolaurate [SPAN ® 20]
[2]
  Viscosity (cp): 1000-2000 cp

— patent US20210145846A1 (Kashiv BioSciences, LLC, priority 2017, published 2021)
